Assay results from article PMC8258697 (The Journal of Biological Chemistry, 2021).

Legend:
Gal4-RXRα total mutant = biological target: T1, Gal4-RXRα total mutant (Homo sapiens, UniProt P19793, E453R/F450Y/K284E/V280T/V298T); experiment: Gal4-RXRα total mutant / VP16-SRC1-2 hybrid reporter gene assay in HEK293T cells
T1 sequence (P19793 225-462 V280T/K284E/V298T/F450Y/E453R): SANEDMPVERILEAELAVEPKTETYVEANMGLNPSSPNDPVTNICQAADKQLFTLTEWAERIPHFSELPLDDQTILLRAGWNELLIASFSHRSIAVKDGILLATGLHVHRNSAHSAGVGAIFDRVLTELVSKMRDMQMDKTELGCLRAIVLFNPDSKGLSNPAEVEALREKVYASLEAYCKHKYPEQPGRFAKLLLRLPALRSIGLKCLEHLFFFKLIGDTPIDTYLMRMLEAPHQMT

RXRα homodimer = biological target: T2, RXRα homodimer (Homo sapiens, UniProt P19793); experiment: RXRα homodimer formation HTRF assay, sGFP-RXRα LBD titrated against biotinylated RXRα LBD (wildtype); type: binding; details: 10 μM ligand compared with no ligand
T2 construct: His10-tag with TEV site (N, cleaved yes); made in house; host or cells: E. coli T7 express (co-expressed with GroEL/ES)
T2 sequence (P19793 226-462) 1: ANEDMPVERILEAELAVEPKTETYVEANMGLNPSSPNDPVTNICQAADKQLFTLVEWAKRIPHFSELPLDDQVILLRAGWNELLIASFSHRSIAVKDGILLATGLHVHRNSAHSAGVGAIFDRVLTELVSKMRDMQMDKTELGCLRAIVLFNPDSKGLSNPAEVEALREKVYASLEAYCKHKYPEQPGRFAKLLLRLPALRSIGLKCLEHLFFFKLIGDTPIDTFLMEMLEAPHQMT
T2 sequence (P19793 226-462) 2: T2 sequence (P19793 226-462) 1

RXRα wildtype LBD = biological target: T3, RXRα wildtype LBD (Homo sapiens, UniProt P19793); experiment: Isothermal titration calorimetry, RXRα wildtype LBD; type: binding; details: 25°C
T3 construct: MBP-Asn10-His8-TEV site (N, cleaved yes); made in house; host or cells: E. coli T7 express (co-expressed with GroEL/ES)
T3 sequence (P19793 223-462): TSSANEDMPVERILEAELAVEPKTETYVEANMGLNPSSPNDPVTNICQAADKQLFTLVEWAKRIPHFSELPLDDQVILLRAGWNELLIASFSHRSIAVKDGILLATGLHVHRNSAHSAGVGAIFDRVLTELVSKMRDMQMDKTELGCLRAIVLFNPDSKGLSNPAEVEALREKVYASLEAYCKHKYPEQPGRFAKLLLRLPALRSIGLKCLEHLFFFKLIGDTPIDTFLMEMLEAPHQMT
Procedure: SI method 1: LBD pulldown
In order to verify proper dimer formation capability of the majority of the protein preparation a pulldown experiment was performed. Therefore, small centrifugal filter columns (nylon membrane with […] pore size; VWR) were loaded with 20 µl of Pierce® high capacity streptavidin agarose beads (Thermo Scientific) equilibrated in HTRF buffer [25 mM HEPES pH 7.5, 150 mM KF, 10% (w/v) glycerol, 5 mM DTT (fresh)], then 20 µl of a mixture of biotin coupled RXRα LBD (4 µg) and the respective PPAR LBD (1.4 µg) was applied. After incubation for 10 min at room temperature followed by centrifugation for 2 min and 900 x g the input mixture as well as the flowthrough was analyzed via SDS PAGE. Gels were scanned using an Li-Cor Odyssey imager (LI-COR® Biosciences GmbH, Germany). […]
The heats of dilution resulting from titrating one of the RXRα LBD proteins into the cell containing only buffer were recorded separately and subtracted from the raw ITC data obtained with compound. Data were analyzed using the NanoAnalyze software package (version 3.7.5). […] Free energy change (ΔG) was calculated using the equation […]
and from there the entropy (ΔS) was calculated from […]
25 injections of 2 µl were performed after an initial injection of 0.5 µl. […] The heats of dilution resulting from titrating of protein into buffer were recorded separately and subtracted. […]

SMILES: CC1(C)CCC(C)(C)c2cc(C3(c4ccc(C(=O)O)cc4)OCCO3)ccc21 [SR11237]
- transactivation of reporter gene expression (Gal4-RXRα total mutant; RXRα mutant, compared with DMSO control): substantial increase in transactivation
- transactivation by the RXRα mutant in comparison with RXRα wt (Gal4-RXRα total mutant; at ≥ 0.1 μM SR11237): markedly reduced
- effect on RXRα homodimer formation (RXRα homodimer): significantly destabilized the homodimer
- binding affinity (ITC) (RXRα wildtype LBD): comparable affinity
